Test results taken from ChEMBL document CHEMBL3621201, “Improving the Selectivity of Engineered Protease Inhibitors: Optimizing the P2 Prime Residue Using a Versatile Cyclic Peptide Library” (J Med Chem, 2015).
Active and inactive are the calls of the source. The rule behind the calls is not given here. Bridge positions count the residues as written; N and C are the ends. Square brackets hold non-standard residues; d marks the D form. Peptide text beside a SMILES is read from it. Bip = N[C@@H](Cc1ccc(-c2ccccc2)cc1)C(=O)O

How the values were obtained:
[1] = target: Serine protease 1 (Homo sapiens) (UniProt P07477); assay: Inhibition of beta-trypsin (unknown origin) at 25 nM using Bz-FVRpNA substrate by spectrophotometry method
Kallikrein-4 = Kallikrein-4 (Homo sapiens, UniProt Q9Y5K2); assay: Inhibition of KLK4 (unknown origin) expressed in Sf9 cells at 25 nM using FVQRpNA substrate by spectrophotometry method
[2] = target: Coagulation factor IX (Homo sapiens) (UniProt P00740); assay: Inhibition of factor 9a-beta (unknown origin) at 25 uM using Ac-QGRpNA substrate by spectrophotometry method
Homo sapiens = species on record: Homo sapiens; assay: Inhibition of alpha chymotrypsin (unknown origin) at 25 uM using Ac-GRPY-pNA by spectrophotometry method
[3] = target: Kallikrein-5 (Homo sapiens) (UniProt Q9Y337); assay: Inhibition of KLK5 (unknown origin) expressed in Pichia pastoris X33 at 50 nM using Ac-YRSR-pNA by spectrophotometry method
Prothrombin = Prothrombin (Homo sapiens, UniProt P00734); assay: Inhibition of alpha-thrombin (unknown origin) at 25 uM using Ac-ATPRpNA substrate by spectrophotometry method
Kallikrein-7 = Kallikrein-7 (Homo sapiens, UniProt P49862); assay: Inhibition of KLK7 (unknown origin) expressed in Pichia pastoris X33 at 200 nM using KHLY-pNA substrate by spectrophotometry method
Plasminogen = Plasminogen (Homo sapiens, UniProt P00747); assay: Inhibition of plasmin (unknown origin) at 50 uM using Ac-RM(O2)YRpNA substrate by spectrophotometry method
[4] = target: T1, Suppressor of tumorigenicity 14 protein (Homo sapiens) (UniProt Q9Y5Y6); assay: Inhibition of matriptase (unknown origin) at 10 uM using Ac-RQFRpNA substrate by spectrophotometry method
T1 sequence (whole entry): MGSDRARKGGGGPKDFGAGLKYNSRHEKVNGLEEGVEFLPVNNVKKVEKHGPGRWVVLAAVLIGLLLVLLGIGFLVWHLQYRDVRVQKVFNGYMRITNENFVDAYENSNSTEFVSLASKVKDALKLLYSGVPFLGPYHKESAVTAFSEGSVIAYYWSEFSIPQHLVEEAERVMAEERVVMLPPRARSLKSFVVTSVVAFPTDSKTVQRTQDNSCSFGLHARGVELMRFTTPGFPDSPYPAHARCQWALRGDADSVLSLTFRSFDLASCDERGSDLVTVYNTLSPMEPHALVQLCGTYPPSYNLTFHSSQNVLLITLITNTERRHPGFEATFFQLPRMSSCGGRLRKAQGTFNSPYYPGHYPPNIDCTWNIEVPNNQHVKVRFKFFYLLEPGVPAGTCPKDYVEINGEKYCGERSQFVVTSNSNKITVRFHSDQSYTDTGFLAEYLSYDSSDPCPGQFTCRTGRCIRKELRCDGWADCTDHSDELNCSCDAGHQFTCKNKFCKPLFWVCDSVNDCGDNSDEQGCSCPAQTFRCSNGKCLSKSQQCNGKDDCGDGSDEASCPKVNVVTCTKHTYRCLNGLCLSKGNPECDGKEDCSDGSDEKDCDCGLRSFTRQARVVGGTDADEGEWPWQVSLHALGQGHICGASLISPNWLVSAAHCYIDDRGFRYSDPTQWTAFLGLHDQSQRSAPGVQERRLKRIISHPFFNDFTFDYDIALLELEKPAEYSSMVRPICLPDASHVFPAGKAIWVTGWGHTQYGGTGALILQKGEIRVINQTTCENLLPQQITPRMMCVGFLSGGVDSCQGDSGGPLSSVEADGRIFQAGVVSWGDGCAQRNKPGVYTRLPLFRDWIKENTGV

[5] = target: Coagulation factor XI (Homo sapiens) (UniProt P03951); assay: Inhibition of factor 11a (unknown origin) at 10 uM using Bz-FVRpNA substrate by spectrophotometry method
[6] = target: T2, Coagulation factor XII (Homo sapiens) (UniProt P00748); assay: Inhibition of factor 12a-alpha (unknown origin) at 10 uM using Ac-QRFRpNA substrate by spectrophotometry method
T2 sequence (whole entry): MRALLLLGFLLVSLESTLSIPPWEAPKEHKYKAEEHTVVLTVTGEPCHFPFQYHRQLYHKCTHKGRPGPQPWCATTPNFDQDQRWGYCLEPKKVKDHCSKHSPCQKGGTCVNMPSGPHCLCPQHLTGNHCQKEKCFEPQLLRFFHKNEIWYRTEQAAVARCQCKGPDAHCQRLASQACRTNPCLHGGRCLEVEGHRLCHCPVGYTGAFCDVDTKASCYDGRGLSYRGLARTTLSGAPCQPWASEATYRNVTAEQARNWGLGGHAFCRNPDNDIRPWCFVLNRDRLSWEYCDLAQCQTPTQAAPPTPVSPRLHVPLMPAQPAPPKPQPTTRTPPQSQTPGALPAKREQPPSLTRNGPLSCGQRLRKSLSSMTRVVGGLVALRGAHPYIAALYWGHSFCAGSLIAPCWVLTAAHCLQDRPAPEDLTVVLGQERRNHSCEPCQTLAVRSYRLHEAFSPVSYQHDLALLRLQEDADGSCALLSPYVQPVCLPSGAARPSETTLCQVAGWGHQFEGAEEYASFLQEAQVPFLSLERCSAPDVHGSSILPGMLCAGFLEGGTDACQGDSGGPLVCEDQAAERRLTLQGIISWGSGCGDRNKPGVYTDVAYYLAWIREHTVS

Chain of Kallikrein-4 (Q9Y5K2 whole entry): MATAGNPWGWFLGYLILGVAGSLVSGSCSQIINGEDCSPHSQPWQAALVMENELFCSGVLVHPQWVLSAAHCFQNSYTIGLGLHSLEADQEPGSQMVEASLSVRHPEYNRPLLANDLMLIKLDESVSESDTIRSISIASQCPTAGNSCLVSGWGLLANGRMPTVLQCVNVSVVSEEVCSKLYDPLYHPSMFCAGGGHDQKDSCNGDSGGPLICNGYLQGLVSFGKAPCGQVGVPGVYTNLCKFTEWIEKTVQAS
Chain of Kallikrein-7 (P49862 30-253 limits assumed): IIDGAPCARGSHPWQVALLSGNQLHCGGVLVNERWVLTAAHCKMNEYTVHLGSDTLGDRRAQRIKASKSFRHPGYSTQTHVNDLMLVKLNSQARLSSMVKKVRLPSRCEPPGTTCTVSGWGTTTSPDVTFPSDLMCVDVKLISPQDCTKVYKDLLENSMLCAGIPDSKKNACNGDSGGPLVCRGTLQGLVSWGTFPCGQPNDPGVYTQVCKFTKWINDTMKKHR
Chain of Serine protease 1 (Homo sapiens) (P07477 whole entry): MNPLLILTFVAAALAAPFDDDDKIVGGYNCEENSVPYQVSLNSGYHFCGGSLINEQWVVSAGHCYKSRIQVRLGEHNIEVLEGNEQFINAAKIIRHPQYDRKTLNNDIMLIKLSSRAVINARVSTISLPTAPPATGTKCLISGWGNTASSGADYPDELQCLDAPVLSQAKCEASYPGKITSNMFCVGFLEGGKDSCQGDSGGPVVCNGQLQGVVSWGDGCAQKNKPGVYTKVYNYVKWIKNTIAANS
Chain of Coagulation factor IX (Homo sapiens) (P00740 47-191 limits assumed): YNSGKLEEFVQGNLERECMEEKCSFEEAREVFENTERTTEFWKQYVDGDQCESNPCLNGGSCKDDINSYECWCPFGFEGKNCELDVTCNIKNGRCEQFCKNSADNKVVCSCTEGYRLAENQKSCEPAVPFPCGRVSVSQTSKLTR
Chain of Coagulation factor IX (Homo sapiens) (P00740 227-461 limits assumed): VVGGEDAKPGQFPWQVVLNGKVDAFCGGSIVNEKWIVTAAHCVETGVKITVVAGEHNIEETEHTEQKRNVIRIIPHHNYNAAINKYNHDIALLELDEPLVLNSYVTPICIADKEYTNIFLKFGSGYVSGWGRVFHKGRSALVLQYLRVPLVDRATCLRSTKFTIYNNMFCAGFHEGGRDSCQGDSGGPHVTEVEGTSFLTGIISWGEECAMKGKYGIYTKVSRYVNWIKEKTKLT
Chain of Kallikrein-5 (Homo sapiens) (Q9Y337 whole entry): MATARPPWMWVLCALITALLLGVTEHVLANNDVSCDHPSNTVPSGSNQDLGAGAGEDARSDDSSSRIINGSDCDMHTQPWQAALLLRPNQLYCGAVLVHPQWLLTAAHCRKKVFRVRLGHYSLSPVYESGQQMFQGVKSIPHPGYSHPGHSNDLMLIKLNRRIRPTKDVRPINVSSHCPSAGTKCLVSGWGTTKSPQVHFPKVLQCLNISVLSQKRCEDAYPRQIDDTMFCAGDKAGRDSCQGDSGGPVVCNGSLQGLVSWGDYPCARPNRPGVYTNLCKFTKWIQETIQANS
Chain of Plasminogen (P00747 97-580 limits assumed): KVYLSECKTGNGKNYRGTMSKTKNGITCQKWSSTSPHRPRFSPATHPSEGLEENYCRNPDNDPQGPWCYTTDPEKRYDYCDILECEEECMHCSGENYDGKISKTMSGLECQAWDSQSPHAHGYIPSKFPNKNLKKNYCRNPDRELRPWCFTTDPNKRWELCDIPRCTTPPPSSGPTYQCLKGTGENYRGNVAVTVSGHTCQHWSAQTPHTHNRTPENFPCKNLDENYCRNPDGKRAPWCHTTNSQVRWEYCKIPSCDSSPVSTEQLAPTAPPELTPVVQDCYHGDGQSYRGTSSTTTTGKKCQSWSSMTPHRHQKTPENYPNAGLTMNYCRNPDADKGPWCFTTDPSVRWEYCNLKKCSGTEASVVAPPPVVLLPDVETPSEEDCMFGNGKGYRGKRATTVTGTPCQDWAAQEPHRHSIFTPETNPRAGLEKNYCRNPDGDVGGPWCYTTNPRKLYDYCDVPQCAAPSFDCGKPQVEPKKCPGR
Chain of Plasminogen (P00747 581-810 limits assumed): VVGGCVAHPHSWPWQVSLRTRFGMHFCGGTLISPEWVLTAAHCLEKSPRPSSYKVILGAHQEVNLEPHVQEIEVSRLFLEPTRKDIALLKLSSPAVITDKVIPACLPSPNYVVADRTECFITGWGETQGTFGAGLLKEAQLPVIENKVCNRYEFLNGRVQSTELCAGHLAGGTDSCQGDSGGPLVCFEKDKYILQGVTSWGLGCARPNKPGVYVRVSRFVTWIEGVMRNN
Chain of Coagulation factor XI (Homo sapiens) (P03951 19-387 limits assumed): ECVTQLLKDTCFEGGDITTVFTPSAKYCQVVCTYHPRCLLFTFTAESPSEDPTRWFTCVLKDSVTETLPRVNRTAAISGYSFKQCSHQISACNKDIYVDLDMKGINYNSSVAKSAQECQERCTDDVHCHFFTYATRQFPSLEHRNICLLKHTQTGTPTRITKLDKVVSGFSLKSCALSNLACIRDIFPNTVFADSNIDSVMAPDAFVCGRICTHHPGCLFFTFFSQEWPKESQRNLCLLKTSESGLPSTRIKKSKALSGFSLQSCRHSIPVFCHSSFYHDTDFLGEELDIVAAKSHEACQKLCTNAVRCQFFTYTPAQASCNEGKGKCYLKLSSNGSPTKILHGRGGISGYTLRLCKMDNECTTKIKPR
Chain of Coagulation factor XI (Homo sapiens) (P03951 388-625 limits assumed): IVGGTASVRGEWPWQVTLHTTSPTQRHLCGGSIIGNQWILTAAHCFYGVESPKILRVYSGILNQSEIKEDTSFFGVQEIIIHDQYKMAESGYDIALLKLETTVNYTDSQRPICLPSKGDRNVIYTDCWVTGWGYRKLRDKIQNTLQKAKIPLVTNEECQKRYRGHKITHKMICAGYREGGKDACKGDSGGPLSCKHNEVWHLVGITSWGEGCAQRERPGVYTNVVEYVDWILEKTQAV

inhibition [1] | inhibition (Kallikrein-4) | inhibition (Homo sapiens) | inhibition [3] | Compound | further results
inactive | inactive | – | – | CC[C@H](C)[C@@H]1NC(=O)[C@@H]2CCCN2C(=O)[C@@H]2CCCN2C(=O)[C@H](CCC(=O)O)NC(=O)[C@H](CO)NC(=O)[C@H](CCCNC(=N)N)NC(=O)[C@H]([C@@H](C)O)NC(=O)[C@@H]2CSSC[C@H](NC1=O)C(=O)N[C@@H](CC(N)=O)C(=O)N1CCC[C@H]1C(=O)N[C@@H](CC(N)=O)C(=O)NCC(=O)N[C@@H]([C@@H](C)O)C(=O)N2 (cyclo(CNPNGTCTRSEPPI); disulfide 1-7) | inhibition [2]: 54%
– | Active | 52% | Active | CC[C@H](C)[C@@H]1NC(=O)[C@@H]2CCCN2C(=O)[C@@H]2CCCN2C(=O)[C@H](Cc2ccccc2)NC(=O)[C@H](CO)NC(=O)[C@H](CCCNC(=N)N)NC(=O)[C@H]([C@@H](C)O)NC(=O)[C@@H]2CSSC[C@H](NC1=O)C(=O)N[C@@H](CC(N)=O)C(=O)N1CCC[C@H]1C(=O)N[C@@H](CC(N)=O)C(=O)NCC(=O)N[C@@H]([C@@H](C)O)C(=O)N2 (cyclo(CNPNGTCTRSFPPI); disulfide 1-7) | inhibition (Prothrombin): 41%
inactive | – | – | – | CC[C@H](C)[C@@H]1NC(=O)[C@@H]2CCCN2C(=O)[C@@H]2CCCN2C(=O)CNC(=O)[C@H](CO)NC(=O)[C@H](CCCNC(=N)N)NC(=O)[C@H]([C@@H](C)O)NC(=O)[C@@H]2CSSC[C@H](NC1=O)C(=O)N[C@@H](CC(N)=O)C(=O)N1CCC[C@H]1C(=O)N[C@@H](CC(N)=O)C(=O)NCC(=O)N[C@@H]([C@@H](C)O)C(=O)N2 (cyclo(CNPNGTCTRSGPPI); disulfide 1-7) | –
– | – | – | inactive | CC[C@H](C)[C@@H]1NC(=O)[C@@H]2CCCN2C(=O)[C@@H]2CCCN2C(=O)[C@H](Cc2cnc[nH]2)NC(=O)[C@H](CO)NC(=O)[C@H](CCCNC(=N)N)NC(=O)[C@H]([C@@H](C)O)NC(=O)[C@@H]2CSSC[C@H](NC1=O)C(=O)N[C@@H](CC(N)=O)C(=O)N1CCC[C@H]1C(=O)N[C@@H](CC(N)=O)C(=O)NCC(=O)N[C@@H]([C@@H](C)O)C(=O)N2 (cyclo(CNPNGTCTRSHPPI); disulfide 1-7) | inhibition (Kallikrein-7): Active
– | – | – | – | CC[C@H](C)[C@@H]1NC(=O)[C@@H]2CCCN2C(=O)[C@@H]2CCCN2C(=O)[C@H](CCCCN)NC(=O)[C@H](CO)NC(=O)[C@H](CCCNC(=N)N)NC(=O)[C@H]([C@@H](C)O)NC(=O)[C@@H]2CSSC[C@H](NC1=O)C(=O)N[C@@H](CC(N)=O)C(=O)N1CCC[C@H]1C(=O)N[C@@H](CC(N)=O)C(=O)NCC(=O)N[C@@H]([C@@H](C)O)C(=O)N2 (cyclo(CNPNGTCTRSKPPI); disulfide 1-7) | inhibition (Plasminogen): 60%; inhibition [2]: 43%
52% | – | – | – | CC[C@H](C)[C@@H]1NC(=O)[C@@H]2CCCN2C(=O)[C@@H]2CCCN2C(=O)[C@H](CC(C)C)NC(=O)[C@H](CO)NC(=O)[C@H](CCCNC(=N)N)NC(=O)[C@H]([C@@H](C)O)NC(=O)[C@@H]2CSSC[C@H](NC1=O)C(=O)N[C@@H](CC(N)=O)C(=O)N1CCC[C@H]1C(=O)N[C@@H](CC(N)=O)C(=O)NCC(=O)N[C@@H]([C@@H](C)O)C(=O)N2 (cyclo(CNPNGTCTRSLPPI); disulfide 1-7) | –
inactive | – | – | – | CC[C@H](C)[C@@H]1NC(=O)[C@@H]2CCCN2C(=O)[C@@H]2CCCN2C(=O)[C@@H]2CCCN2C(=O)[C@H](CO)NC(=O)[C@H](CCCNC(=N)N)NC(=O)[C@H]([C@@H](C)O)NC(=O)[C@@H]2CSSC[C@H](NC1=O)C(=O)N[C@@H](CC(N)=O)C(=O)N1CCC[C@H]1C(=O)N[C@@H](CC(N)=O)C(=O)NCC(=O)N[C@@H]([C@@H](C)O)C(=O)N2 (cyclo(CNPNGTCTRSPPPI); disulfide 1-7) | –
– | – | – | inactive | CC[C@H](C)[C@@H]1NC(=O)[C@@H]2CCCN2C(=O)[C@@H]2CCCN2C(=O)[C@H](CCC(N)=O)NC(=O)[C@H](CO)NC(=O)[C@H](CCCNC(=N)N)NC(=O)[C@H]([C@@H](C)O)NC(=O)[C@@H]2CSSC[C@H](NC1=O)C(=O)N[C@@H](CC(N)=O)C(=O)N1CCC[C@H]1C(=O)N[C@@H](CC(N)=O)C(=O)NCC(=O)N[C@@H]([C@@H](C)O)C(=O)N2 (cyclo(CNPNGTCTRSQPPI); disulfide 1-7) | inhibition (Kallikrein-7): Active
65% | Active | 57% | – | CC[C@H](C)[C@@H]1NC(=O)[C@@H]2CCCN2C(=O)[C@@H]2CCCN2C(=O)[C@H](CCCNC(=N)N)NC(=O)[C@H](CO)NC(=O)[C@H](CCCNC(=N)N)NC(=O)[C@H]([C@@H](C)O)NC(=O)[C@@H]2CSSC[C@H](NC1=O)C(=O)N[C@@H](CC(N)=O)C(=O)N1CCC[C@H]1C(=O)N[C@@H](CC(N)=O)C(=O)NCC(=O)N[C@@H]([C@@H](C)O)C(=O)N2 (cyclo(CNPNGTCTRSRPPI); disulfide 1-7) | inhibition (Plasminogen): 23%; inhibition [2]: 43%
– | – | – | inactive | CC[C@H](C)[C@@H]1NC(=O)[C@@H]2CCCN2C(=O)[C@@H]2CCCN2C(=O)[C@H](CO)NC(=O)[C@H](CO)NC(=O)[C@H](CCCNC(=N)N)NC(=O)[C@H]([C@@H](C)O)NC(=O)[C@@H]2CSSC[C@H](NC1=O)C(=O)N[C@@H](CC(N)=O)C(=O)N1CCC[C@H]1C(=O)N[C@@H](CC(N)=O)C(=O)NCC(=O)N[C@@H]([C@@H](C)O)C(=O)N2 (cyclo(CNPNGTCTRSSPPI); disulfide 1-7) | inhibition (Kallikrein-7): Active
75% | 92% | 76% | – | CC[C@H](C)[C@@H]1NC(=O)[C@@H]2CCCN2C(=O)[C@@H]2CCCN2C(=O)[C@H](C(C)C)NC(=O)[C@H](CO)NC(=O)[C@H](CCCNC(=N)N)NC(=O)[C@H]([C@@H](C)O)NC(=O)[C@@H]2CSSC[C@H](NC1=O)C(=O)N[C@@H](CC(N)=O)C(=O)N1CCC[C@H]1C(=O)N[C@@H](CC(N)=O)C(=O)NCC(=O)N[C@@H]([C@@H](C)O)C(=O)N2 (cyclo(CNPNGTCTRSVPPI); disulfide 1-7) | inhibition [4]: 54%; inhibition (Plasminogen): 25%; inhibition [5]: 65%; inhibition [6]: 80%
– | – | 63% | Active | CC[C@H](C)[C@@H]1NC(=O)[C@@H]2CCCN2C(=O)[C@@H]2CCCN2C(=O)[C@H](Cc2c[nH]c3ccccc23)NC(=O)[C@H](CO)NC(=O)[C@H](CCCNC(=N)N)NC(=O)[C@H]([C@@H](C)O)NC(=O)[C@@H]2CSSC[C@H](NC1=O)C(=O)N[C@@H](CC(N)=O)C(=O)N1CCC[C@H]1C(=O)N[C@@H](CC(N)=O)C(=O)NCC(=O)N[C@@H]([C@@H](C)O)C(=O)N2 (cyclo(CNPNGTCTRSWPPI); disulfide 1-7) | inhibition [6]: 87%
– | Active | – | Active | CC[C@H](C)[C@@H]1NC(=O)[C@@H]2CCCN2C(=O)[C@@H]2CCCN2C(=O)[C@H](Cc2ccc(-c3ccccc3)cc2)NC(=O)[C@H](CO)NC(=O)[C@H](CCCNC(=N)N)NC(=O)[C@H]([C@@H](C)O)NC(=O)[C@@H]2CSSC[C@H](NC1=O)C(=O)N[C@@H](CC(N)=O)C(=O)N1CCC[C@H]1C(=O)N[C@@H](CC(N)=O)C(=O)NCC(=O)N[C@@H]([C@@H](C)O)C(=O)N2 (cyclo([Bip]PPICNPNGTCTRS); disulfide 5-11) | inhibition [6]: 80%
